Patent US8741934B2, “Inhibitors of ion channels” (Pfizer Limited, priority 2007, dated 2014)
Like-named read-outs stand apart in the source and are kept apart here.

Target: T1, hSCN3A sodium channels (Homo sapiens, UniProt Q9NY46)
T1 construct: expressed in transfected cells
Assay: hSCN3A electrophysiology, whole-cell patch-clamp or PatchXpress 7000, estimated IC-50 (Table B)
Type: cell-based
Details: read-out: SCN3A EIC-50
Method in brief: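 A 20 msec test pulse to 0 mV followed an 8 sec conditioning prepulse at each cell's measured V1/2. Room-temperature (22-24° C) recordings on HEK cells stably expressing the channel, conventional or PatchXpress.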

[1] = estimated IC-50, hSCN3A cells, whole-cell patch-clamp or PatchXpress 7000

T1 sequence (Q9NY46 whole entry): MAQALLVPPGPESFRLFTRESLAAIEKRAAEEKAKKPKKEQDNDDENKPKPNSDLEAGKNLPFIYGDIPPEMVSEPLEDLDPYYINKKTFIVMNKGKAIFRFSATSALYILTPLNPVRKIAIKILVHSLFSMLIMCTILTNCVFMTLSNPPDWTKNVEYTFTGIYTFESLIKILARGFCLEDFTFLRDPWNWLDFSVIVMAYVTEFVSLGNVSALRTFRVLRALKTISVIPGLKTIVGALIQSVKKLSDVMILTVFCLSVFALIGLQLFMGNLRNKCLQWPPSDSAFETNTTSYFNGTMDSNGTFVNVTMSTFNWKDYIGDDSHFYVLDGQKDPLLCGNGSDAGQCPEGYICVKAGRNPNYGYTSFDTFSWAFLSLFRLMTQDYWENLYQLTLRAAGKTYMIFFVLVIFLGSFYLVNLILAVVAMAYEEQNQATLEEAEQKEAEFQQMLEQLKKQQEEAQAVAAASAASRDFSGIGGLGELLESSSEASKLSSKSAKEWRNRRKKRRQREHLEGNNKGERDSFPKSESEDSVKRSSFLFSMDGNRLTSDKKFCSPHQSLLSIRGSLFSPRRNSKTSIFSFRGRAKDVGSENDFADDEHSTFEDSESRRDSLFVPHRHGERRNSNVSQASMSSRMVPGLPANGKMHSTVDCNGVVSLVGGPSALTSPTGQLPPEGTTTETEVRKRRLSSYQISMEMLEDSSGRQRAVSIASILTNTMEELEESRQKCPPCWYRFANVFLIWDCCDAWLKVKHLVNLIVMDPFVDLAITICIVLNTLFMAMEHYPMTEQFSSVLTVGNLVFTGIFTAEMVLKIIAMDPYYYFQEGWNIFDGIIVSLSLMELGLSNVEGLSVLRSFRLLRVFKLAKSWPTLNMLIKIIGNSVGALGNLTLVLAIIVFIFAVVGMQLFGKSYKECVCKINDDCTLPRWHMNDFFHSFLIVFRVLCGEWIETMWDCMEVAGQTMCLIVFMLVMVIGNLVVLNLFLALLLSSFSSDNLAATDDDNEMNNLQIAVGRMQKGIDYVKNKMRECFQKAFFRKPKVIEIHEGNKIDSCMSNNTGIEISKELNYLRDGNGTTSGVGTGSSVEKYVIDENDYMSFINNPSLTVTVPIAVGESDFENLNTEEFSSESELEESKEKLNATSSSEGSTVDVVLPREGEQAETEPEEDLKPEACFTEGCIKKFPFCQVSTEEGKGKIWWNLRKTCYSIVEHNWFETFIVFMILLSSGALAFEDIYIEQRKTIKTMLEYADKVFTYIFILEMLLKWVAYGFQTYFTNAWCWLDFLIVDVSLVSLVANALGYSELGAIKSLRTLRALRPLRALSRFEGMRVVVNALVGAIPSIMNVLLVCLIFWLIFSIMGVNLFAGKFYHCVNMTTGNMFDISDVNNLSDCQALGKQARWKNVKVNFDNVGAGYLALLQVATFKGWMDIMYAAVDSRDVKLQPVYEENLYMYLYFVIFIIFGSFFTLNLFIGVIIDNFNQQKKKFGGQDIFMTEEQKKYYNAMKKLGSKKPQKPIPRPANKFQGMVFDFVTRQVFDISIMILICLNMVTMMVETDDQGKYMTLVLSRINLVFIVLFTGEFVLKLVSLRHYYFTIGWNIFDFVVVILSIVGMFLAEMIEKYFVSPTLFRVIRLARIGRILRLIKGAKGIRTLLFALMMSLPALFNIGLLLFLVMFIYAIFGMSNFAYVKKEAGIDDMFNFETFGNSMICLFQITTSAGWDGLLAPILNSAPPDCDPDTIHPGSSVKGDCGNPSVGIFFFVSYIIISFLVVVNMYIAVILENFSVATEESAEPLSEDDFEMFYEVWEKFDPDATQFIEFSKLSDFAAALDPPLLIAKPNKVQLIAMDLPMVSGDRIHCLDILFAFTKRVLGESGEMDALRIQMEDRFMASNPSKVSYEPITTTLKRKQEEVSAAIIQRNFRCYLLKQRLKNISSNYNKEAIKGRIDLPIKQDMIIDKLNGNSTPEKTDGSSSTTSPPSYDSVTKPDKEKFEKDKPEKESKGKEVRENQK

Row | Structure (SMILES) | IC50 [1] [µM] | IC50 [µM]
1 | COc1ccc(CNC(=O)c2ccc(S(=O)(=O)Nc3nccs3)cc2)cc1Cl [Example 405, N-(3-chloro-4-methoxybenzyl)-4-[(1,3-thiazol-2-ylamino)sulfonyl] benzamide] | 0.06 | –
2 | CC(O)(CN(C(=O)c1ccc(S(=O)(=O)Nc2nccs2)cc1)C1CCCCC1)c1ccccc1 (centres unmarked) [Example 257, N-cyclohexyl-N-(2-hydroxy-2-phenylpropyl)-4-[(1,3-thiazol-2-yl-amino)sulfonyl]benzamide] | > 1 | –
3 | O=C(NCc1ccc(OC(F)(F)F)c(F)c1)c1ccc(S(=O)(=O)Nc2nccs2)cn1 [Example 343, N-[3-fluoro-4-(trifluoromethoxy)benzyl]-5-[(1,3-thiazol-2-ylamino)sulfonyl] pyridine-2-carboxamide] | 0.31 | –
4 | O=C(NCc1ccc(C(F)(F)F)cc1)c1ccc(S(=O)(=O)Nc2nncs2)cc1 [Example 21, 4-[(1,3,4-Thiadiazol-2-ylamino)sulfonyl]-N-[4-(trifluoromethyl)benzyl]benzamide] | 1.97 | –
5 | O=C(NC1(c2ccc(Cl)cc2)CC1)c1ccc(S(=O)(=O)Nc2nccs2)cc1 [Example 139, N-[1-(4-chlorophenyl)cyclopropyl]-4-[(1,3-thiazol-2-ylamino)sulfonyl]benzamide] | 1.66 | –
6 | O=C(NCc1cccc(C(F)(F)F)c1)c1ccc(S(=O)(=O)Nc2nccs2)cc1F [Example 327, 2-Fluoro-4-[(1,3-thiazol-2-ylamino)sulfonyl]-N-[3-(trifluoromethyl)benzyl]benzamide] | 0.26 | –
7 | O=C(NCc1ccc(C(F)(F)F)cc1)c1ccc(S(=O)(=O)Nc2nccs2)cc1F [Example 325, 2-Fluoro-4-[(1,3-thiazol-2-ylamino)sulfonyl]-N-[4-(trifluoromethyl)benzyl]benzamide] | 0.46 | –
8 | O=C(NCc1ccc(F)c(OC(F)(F)F)c1)c1ccc(S(=O)(=O)Nc2nccs2)c(F)c1 [Example 300, 3-Fluoro-N-[4-fluoro-3-(trifluoromethoxy)benzyl]-4-[(1,3-thiazol-2-ylamino)sulfonyl]benzamide] | 0.13 | –
9 | O=C(NCc1cccc(OC(F)(F)F)c1)c1ccc(S(=O)(=O)Nc2ncc(Cl)s2)cc1F [Example 357, 4-{[(5-Chloro-1,3-thiazol-2-yl)amino]sulfonyl}-2-fluoro-N-[3-(trifluoromethoxy)benzyl]benzamide] | 0.19 | –
10 | O=C(NCc1ccc(C(F)(F)F)c(Cl)c1)c1ccc(S(=O)(=O)Nc2ncc(Cl)s2)cc1 [Example 30, 4-{[(5-Chloro-1,3-thiazol-2-yl)amino]sulfonyl}-N-[3-chloro-4-(trifluoromethyl)benzyl]benzamide] | 0.03 | –
11 | O=C(NCc1ccc(Cl)c(F)c1)c1ccc(S(=O)(=O)Nc2ncc(Cl)s2)cc1 [Example 37, N-(4-Chloro-3-fluorobenzyl)-4-{[(5-chloro-1,3-thiazol-2-yl)amino]sulfonyl}benzamide] | 0.07 | –
12 | O=C(NCc1ccc(OC(F)(F)F)c(F)c1)c1ccc(S(=O)(=O)Nc2ncc(Cl)s2)cc1 [Example 38] | 0.06 | –
13 | CN(Cc1ccc(C(F)(F)F)cc1)C(=O)c1ccc(S(=O)(=O)Nc2ncc(Cl)s2)cc1 [Example 41, 4-{[(5-Chloro-1,3-thiazol-2-yl)amino]sulfonyl}-N-methyl-N-[4-(trifluoromethyl)benzyl]benzamide] | 2.35 | –
14 | COc1cccc(C2CCCN(C(=O)c3ccc(S(=O)(=O)Nc4nccs4)cc3)C2)c1 (centres unmarked) [Example 217, 4-{[3-(3-Methoxyphenyl)piperidin-1-yl]carbonyl}-N-1,3-thiazol-2-yl-benzenesulfonamide] | 2.91 | –
15 | CC(NC(=O)c1ccc(S(=O)(=O)Nc2ncc(Cl)s2)cc1)c1ccc(C(F)(F)F)cc1 (centres unmarked) [Example 44, 4-{[(5-Chloro-1,3-thiazol-2-yl)amino]sulfonyl}-N-{1-[4-(trifluoromethyl)phenyl]ethyl}benzamide] | 0.27 | –
16 | O=C(NCc1ccc(OC(F)(F)F)c(F)c1)c1ccc(S(=O)(=O)Nc2ncc(Cl)s2)c(Cl)c1 [Example 365, 3-Chloro-4-{[(5-chloro-1,3-thiazol-2-yl)amino]sulfonyl}-N-[3-fluoro-4-(trifluoromethoxy)benzyl]benzamide] | 0.6 | –
17 | O=C(NC1Cc2ccccc2C1)c1ccc(S(=O)(=O)Nc2nccs2)cc1 [Example 173, N-(2,3-dihydro-1H-inden-2-yl)-4-[(1,3-thiazol-2-ylamino)sulfonyl]benzamide] | 2.67 | –
18 | O=C(NCc1ccc(OC(F)(F)F)c(F)c1)c1ccc(S(=O)(=O)Nc2nccs2)c(F)c1 [Example 305, 3-Fluoro-N-[3-fluoro-4-(trifluoromethoxy)benzyl]-4-[(1,3-thiazol-2-ylamino)sulfonyl]benzamide] | 0.06 | –
19 | O=C(NCc1ccc(F)cc1C(F)(F)F)c1ccc(S(=O)(=O)Nc2nccs2)cc1 [Example 80, N-[4-fluoro-2-(trifluoromethyl)benzyl]-4-[(1,3-thiazol-2-ylamino)sulfonyl]benzamide] | > 0.1 | –

Row | Structure (SMILES) | IC50 [1] [µM] | IC50 [µM]
20 | O=C(NCCc1ccc(C(F)(F)F)cc1)c1ccc(S(=O)(=O)Nc2nccs2)cc1 [Example 101, 4-[(1,3-Thiazol-2-ylamino)sulfonyl]-N-{2-[4-(trifluoromethyl)phenyl]ethyl}benzamide] | 0.57 | –
21 | O=C(NCc1ccc(C(F)(F)F)cc1)c1ccc(S(=O)(=O)Nc2ncc(Cl)s2)cc1 [Example 1, 4-{[(5-Chloro-1,3-thiazol-2-yl)amino]sulfonyl}-N-[4-(trifluoromethyl)benzyl]benzamide] | 0.07 | –
22 | COc1ccccc1CNC(=O)c1ccc(S(=O)(=O)Nc2nccs2)cc1 [Example 174, N-(2-methoxybenzyl)-4-[(1,3-thiazol-2-ylamino)sulfonyl]benzamide] | 3.97 | –
23 | O=C(NCc1ccc(F)c(F)c1)c1ccc(S(=O)(=O)Nc2nccs2)c(F)c1 [Example 298, N-(3,4-difluorobenzyl)-3-fluoro-4-[(1,3-thiazol-2-ylamino)sulfonyl]benzamide] | 0.16 | –
24 | O=C(NCc1ccc(OC(F)(F)F)cc1)c1ccc(S(=O)(=O)Nc2ncc(Cl)s2)cc1 [Example 45, 4-{[(5-Chloro-1,3-thiazol-2-yl)amino]sulfonyl}-N-[4-(trifluoromethoxy)benzyl]benzamide] | 0.07 | –
25 | O=C(NCc1ccc(OC(F)(F)F)c(F)c1)c1ccc(S(=O)(=O)Nc2ncc(Cl)s2)cc1Cl [Example 337, 2-Chloro-4-{[(5-chloro-1,3-thiazol-2-yl)amino]sulfonyl}-N-[3-fluoro-4-(trifluoromethoxy)benzyl]benzamide] | 0.39 | –
26 | O=C(NCc1ccc(C(F)(F)F)c(Cl)c1)c1ccc(S(=O)(=O)Nc2ncc(Cl)s2)cn1 [Example 346, 5-{[(5-Chloro-1,3-thiazol-2-yl)amino]sulfonyl}-N-[3-chloro-4-(trifluoromethyl)benzyl] pyridine-2-carboxamide] | – | 0.07
27 | O=C(c1ccc(S(=O)(=O)Nc2nccs2)cc1)N(Cc1ccccc1)[C@H]1CCCC[C@H]1CO [Example 245, N-benzyl-N-[(1S,2R)-2-(hydroxymethyl)cyclohexyl]-4-[(1,3-thiazol-2-ylamino)sulfonyl]benzamide] | 2.22 | –
28 | O=C(NCc1cccc(C(F)(F)F)c1)c1ccc(S(=O)(=O)Nc2ncc(Cl)s2)c(Cl)c1 [Example 372, 3-Chloro-4-{[(5-chloro-1,3-thiazol-2-yl)amino]sulfonyl}-N-[3-(trifluoromethyl)benzyl] benzamide] | 2.26 | –
29 | Cc1cccc(OC2CCCN(C(=O)c3ccc(S(=O)(=O)Nc4nccs4)cc3)C2)c1 (centres unmarked) [Example 51, 4-{[3-(3-Methylphenoxy)piperidin-1-yl]carbonyl}-N-1,3-thiazol-2-ylbenzenesulfonamide] | 6.58 | –
30 | O=C(NCc1cccs1)c1ccc(S(=O)(=O)Nc2nccs2)cc1 [Example 386, 4-[(1,3-Thiazol-2-ylamino)sulfonyl]-N-(2-thienylmethyl)benzamide] | 3.41 | –
31 | Cn1nc(Cc2ccc(Cl)cc2)cc1NC(=O)c1ccc(S(=O)(=O)Nc2ncc(Cl)s2)c(F)c1 [Example 379, N-[3-(4-chlorobenzyl)-1-methyl-1H-pyrazol-5-yl]-4-{[(5-chloro-1,3-thiazol-2-yl)-amino]sulfonyl}-3-fluorobenzamide] | 0.02 | –
32 | O=C(NCc1ccc(C(F)(F)F)c(F)c1)c1ccc(S(=O)(=O)Nc2ncc(Cl)s2)cn1 [Example 345, 5-{[(5-Chloro-1,3-thiazol-2-yl)amino]sulfonyl}-N-[3-fluoro-4-(trifluoromethyl)benzyl] pyridine-2-carboxamide] | – | 0.27
33 | O=C(NCc1ccc(OC(F)(F)F)c(F)c1)c1ccc(S(=O)(=O)Nc2nccs2)c(Cl)c1 [Example 286, 3-Chloro-N-[3-fluoro-4-(trifluoromethoxy)benzyl]-4-[(1,3-thiazol-2-yl-amino)sulfonyl]benzamide] | 0.14 | –
34 | O=C(NCc1ccc(Oc2ccccc2)cc1)c1ccc(S(=O)(=O)Nc2nccs2)cc1 [Example 409, N-(4-phenoxybenzyl)-4-[(1,3-thiazol-2-ylamino)sulfonyl] benzamide] | 0.04 | –
35 | N#Cc1ccc(CNC(=O)c2ccc(S(=O)(=O)Nc3nccs3)cc2)cc1 [Example 416, N-(4-cyanobenzyl)-4-[(1,3-thiazol-2-ylamino)sulfonyl] benzamide] | 0.86 | –
36 | O=C(c1ccc(S(=O)(=O)Nc2nccs2)cc1)N1CCCCC1c1ccccc1 (centres unmarked) [Example 239, 4-[(2-Phenylpiperidin-1-yl)carbonyl]-N-1,3-thiazol-2-yl-benzenesulfonamide] | 2.97 | –
37 | O=C(NCc1ccc(C(F)(F)F)c(F)c1)c1ccc(S(=O)(=O)Nc2nccs2)c(Cl)c1 [Example 289, 3-Chloro-N-[3-fluoro-4-(trifluoromethyl)benzyl]-4-[(1,3-thiazol-2-yl-amino)sulfonyl]benzamide] | 0.34 | –
38 | Cc1csc(NS(=O)(=O)c2ccc(C(=O)NCc3ccc(C(F)(F)F)cc3)cc2)n1 [Example 391, 4-{[(4-methyl-1,3-thiazol-2-yl)amino]sulfonyl}-N-[4-(trifluoromethyl)benzyl] benzamide] | 1.35 | –
